Several values for one entry are separate records, joined by “and”; a condition that tells them apart may be missing. Equal values may be shown once.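 Briefly, cells in 96-well plates were exposed to five compound concentrations for 48 h, and endpoints were estimated by linear interpolation. At the GI50, growth is halved. TGI is the concentration that stops growth completely.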
Tests used:
Experiment in all cases: growth of human tumour cells (NCI), 48 h
RPMI-8226 leukemia = tested on: RPMI-8226 leukemia
NCI/ADR-RES ovarian = tested on: NCI/ADR-RES ovarian
SF-295 CNS = tested on: SF-295 CNS
PC-3 prostate = tested on: PC-3 prostate
NCI-H226 lung = tested on: NCI-H226 lung
SW-620 colon = tested on: SW-620 colon
IGROV1 ovarian = tested on: IGROV1 ovarian
RXF 393 renal = tested on: RXF 393 renal

SMILES | GI50 (RPMI-8226 leukemia) [µM] | TGI (RPMI-8226 leukemia) [µM] | GI50 (NCI/ADR-RES ovarian) | TGI (NCI/ADR-RES ovarian) [µM] | GI50 (SF-295 CNS) [µM] | TGI (SF-295 CNS) [µM] | GI50 (PC-3 prostate) [µM] | TGI (PC-3 prostate) [µM] | GI50 (NCI-H226 lung) [µM] | TGI (NCI-H226 lung) [µM] | GI50 (SW-620 colon) [µM] | TGI (SW-620 colon) [µM] | GI50 (IGROV1 ovarian) [µM] | TGI (IGROV1 ovarian) [µM] | GI50 (RXF 393 renal) [µM] | TGI (RXF 393 renal) [µM]
COc1cccc2c1C(=O)c1c(O)c3c(c(O)c1C2=O)C[C@@](O)(C(=O)CO)C[C@@H]3OC1CC2C(OCN2CN2COC3C(C)OC(O[C@H]4C[C@](O)(C(=O)CO)Cc5c(O)c6c(c(O)c54)C(=O)c4c(OC)cccc4C6=O)CC32)C(C)O1 (some centres undefined) | 0.0017 | 0.0108 | 0.0187 µM | 0.198 | 0.0024 | 0.0259 | 0.0107 | 0.0896 | 0.00981 | 0.0584 | 0.00577 | > 1 | 0.0014 | 0.127 | 0.000978 | 0.0101
O=C(N/N=C/c1coc2ccc(Cl)cc2c1=O)c1cc(O)c(O)c(O)c1 | 28.5 | > 100 | 17.8 µM | 50.2 | 45.8 | > 100 | 33.2 | > 100 | 26.1 | 68.4 | 25.8 | 97.4 | 44.5 | > 100 | 34.9 | > 100
O=C1c2ccccc2-n2c1nc1ccc([N+](=O)[O-])cc1c2=O |  | 84.4 |  | > 100 |  | 79.7 |  | > 100 |  | > 100 |  | > 100 |  | > 100 |  | > 100
CCOC(=O)c1c(C)n(Cc2ccc(Cl)cc2Cl)c2c1cc(O)c1[nH]c(Cc3ccccc3)nc12 | 1.92 | 3.9 | 4.79 µM | 17.3 | 5.92 | 26.2 | 2.11 | 5.62 | 14 | 30.9 | 2.21 | 6.02 | 3.22 | 15.8 | 2.4 | 5.23
C(#Cc1ccccc1C#Cc1cnccn1)c1cnccn1 | 21.2 | > 63.4 | 23.2 µM | > 75.8 | 30.3 | > 74 | 18.6 | 55.3 | 28.1 | > 78.4 | 40.2 | > 100 | > 22.9 | > 47.9 | > 100 | > 100
CCCCCCCCCCCCNCCCc1ccccc1 | 2.09 | 4.41 | 1.77 µM | 3.5 | 1.93 | 3.62 |  |  | 1.87 | 3.61 | 1.64 | 3.28 | 1.93 | 3.49 | 1.63 | 3.1
C[C@H]1CCC/C=C/[C@@H]2C[C@H](O)C[C@H]2[C@H](O)C(O)C(O)C(=O)O1 (some centres undefined) | 2.66 | 14.9 | 1.62 µM |  | 4.66 | > 100 | 3.44 | > 29.8 | 0.189 | 0.399 | 3.26 | > 100 | 2.96 | 11.7 | 2.52 | > 24.6
Cc1ccc(S(=O)(=O)NC(=O)Nc2ncn[nH]2)cc1 |  | > 100 |  | > 100 |  | > 100 |  | > 100 |  | > 100 |  | > 100 |  | > 100 |  | > 100
O=C1OC(=O)c2c1cc1cc3c(cc1c2-c1ccc2c(c1)OCO2)OCO3 |  | > 100 |  | > 100 |  | > 100 |  | > 100 |  | > 100 |  | > 100 |  | > 100 |  | > 100
CN(C)Cc1nsc(N(C)C)n1 |  | > 100 |  | > 100 |  | > 100 |  | > 100 |  | > 100 |  | > 100 |  | > 100 |  | > 100
COc1ccc(C(=O)c2no[n+]([O-])c2C(=O)c2ccc(OC)cc2)cc1 | 2.06 | 4.85 | 10.7 µM | 28.7 | 17.8 | 34.7 | 5.21 | 16.8 | 25.8 | > 64.3 | 1.89 | 3.42 | 2.3 | 5.53 | 2.25 | 5.93
CC(C)(C)c1ccc(OCCCCCCCN2CCNCC2)cc1 | 1.83 | 4.25 | 2.46 µM | 6.94 | 1.84 | 3.78 | 1.66 | 3.85 | 1.86 | 4.1 | 1.67 | 3.26 | 1.92 | 3.66 | 1.69 | 3.37
O=NN(CC(=O)NNc1ccccc1)CC(=O)NNc1ccccc1 | 12.4 | > 100 | 14.2 µM | > 100 | 2.34 | 7.81 | 5.64 | > 100 | > 100 | > 100 | 4.21 | > 100 | > 64 | > 100 | > 100 | > 100
CCOC(=O)c1nc2sc(Cl)cn2c1/C=N/N=C(N)N | 13 | > 51.5 | 39 µM | > 83.4 | 27.7 | > 52.3 | 24.4 | > 56.8 | 26.3 | > 55.1 | 14.7 | 43.8 | 32.7 | > 100 | 18.8 | > 70.2
COc1cc(/C=C/C(=O)c2cccc(-n3cc(-c4ccccc4)[nH]c3=O)c2)ccc1O | 1.66 | 4.21 | 3.5 µM | > 43 | 6.75 | 21 | 2.87 | 12 | 6.35 | 17.8 | 2.48 | 6.3 | 2.22 | 7.28 | 1.78 | 4.12
COc1cc2c(cc1OCCCN1CCN(CCCOc3cc4c(cc3OC)C(=O)N3C[C@H](F)C[C@H]3C=N4)CC1)N=C[C@@H]1C[C@@H](F)CN1C2=O | 0.0226 | 1.04 | 9.18 µM | 47.3 | 0.0457 | > 100 | 0.0546 |  |  |  | 0.0746 | 10.4 | 0.0696 | 1.88 |  | 
O=C(/C=C/c1cccc(Cl)c1)c1ccccc1 | 3.09 | 9.04 | 16.3 µM | 49.8 | 3.88 | 18 | 4.13 | 22.3 | 14.4 | 29.6 | 1.47 | 2.97 | 2.06 | 6.41 | 12.2 | 24.8
O=c1oc2cc(O)ccc2cc1-c1nc2ccccc2o1 |  | 75.8 |  | > 100 |  | > 100 |  | > 100 |  | > 100 |  | > 100 |  | > 100 |  | 35.5

SMILES | GI50 (RPMI-8226 leukemia) [µM] | TGI (RPMI-8226 leukemia) [µM] | GI50 (NCI/ADR-RES ovarian) | TGI (NCI/ADR-RES ovarian) [µM] | GI50 (SF-295 CNS) [µM] | TGI (SF-295 CNS) [µM] | GI50 (PC-3 prostate) [µM] | TGI (PC-3 prostate) [µM] | GI50 (NCI-H226 lung) [µM] | TGI (NCI-H226 lung) [µM] | GI50 (SW-620 colon) [µM] | TGI (SW-620 colon) [µM] | GI50 (IGROV1 ovarian) [µM] | TGI (IGROV1 ovarian) [µM] | GI50 (RXF 393 renal) [µM] | TGI (RXF 393 renal) [µM]
CCn1cnc(C[C@H](NC(=O)[C@@H](NC(=O)Nc2cc(C(F)(F)F)cc(C(F)(F)F)c2)C(C)(C)C)C(=O)OC)c1 | > 10 | > 10 | > 10 µM | > 10 | > 10 | > 10 | > 10 | > 10 | > 10 | > 10 | > 10 | > 10 | > 10 | > 10 | > 10 | > 10
Cc1c(C(=O)Nc2ccc(Oc3ccnc4cc(OCC(C)(C)O)ccc34)c(F)c2)c(=O)n(-c2ccccc2)n1C |  |  |  |  | 0.782 | > 100 |  |  |  |  |  |  |  |  | 2.72 | > 100
O=C1CC[C@@H]2[C@H]3CCC(=O)c4c3c(c3cccc(O)c3c4O)O[C@@]23C(=O)c2cccc(O)c2C(O)=C13 | > 100 | > 100 | > 100 µM | > 100 |  |  | > 100 | > 100 | > 100 | > 100 | > 100 | > 100 | > 100 | > 100 | > 100 | > 100
CCc1n(Cc2ccc3ccccc3c2)cc[n+]1Cc1ccc2ccccc2c1 | 0.376 | 1.8 | 19.2 µM | 62.4 | 1.43 | 4 | 0.699 | 2.49 | 1.08 | 3.82 | 0.964 | 2.55 | 0.736 | 2.32 | 1.15 | 2.63
N#C/C(=C\c1ccccn1)c1nc2ccccc2o1 | 18.5 | 52.4 | 33.4 µM | > 100 | 84.2 | > 100 | 17.6 | 50.5 | 39.3 | > 100 | 17.5 | 37.1 | 18.4 | > 100 | 28.3 | 82.2
Cc1cc(N)c2cc(NC(=O)/C=C\c3ccccc3Cl)ccc2n1 |  |  | > 24.2 µM | > 100 | 1.31 | 2.71 | 1.46 | 2.84 | 2.01 | 3.69 | 0.214 | 0.478 | 1.61 | 3.07 | 1.45 | 2.91
CC(C)C[C@H](NC(=O)[C@@H](N)Cc1cccc2ccccc12)B(O)O |  | < 0.0272 | 1.39 µM and 0.183 µM |  | 0.313 |  | 1.12 |  |  | < 0.0186 | 0.231 |  | 0.836 |  | 0.136 | 
Cc1nc2sc(C(=O)Nc3cccc4c3OCCO4)c(N)c2cc1C(C)O (centres undefined) | 4.16 | > 100 | 3.28 µM | > 100 | 5.04 | > 100 | 5 | > 100 | > 100 | > 100 | 3.34 | > 100 | 4.84 | > 100 | 2.92 | > 100
Cc1nc2ccccc2c(/C=C/c2ccc(C(F)(F)F)cc2)c1C(=O)/C=C/c1ccccc1 | 0.999 | 4.64 | 1.97 µM | 4.76 | 1.77 | 3.22 | 1.34 | 3.17 | 1.6 | 3.14 |  |  | 1.12 | 3 | 1.46 | 2.81
CN(COC(=O)C(C)(C)C)c1nc(N(C)COC(=O)C(C)(C)C)nc(N(C)COC(=O)C(C)(C)C)n1 |  |  |  | > 100 |  | > 100 |  | > 100 |  | > 100 |  | 82.2 |  | > 100 |  | 41.9
C=CCC(NCc1ccccc1)c1cn(C(=O)OCC)c2ccccc12 (centres undefined) | 13.1 | 35.8 | 21.4 µM | 52.1 | 21.7 | 47.4 | 22.9 | 96.4 |  |  | 18.3 | 41.7 | 18.5 | 71.7 | 19 | 46.5
Nc1ccccc1SC(CC(=O)c1ccccc1)c1c(Cl)cccc1Cl (centres undefined) | 1.9 | 5.35 | 3.72 µM | 28.5 | 5.59 | 19.1 |  |  | 14.9 | 40.6 | 2.28 | 5.21 | 2.74 | 8.62 | 4.23 | 17.4
O=[N+]([O-])C(=C1c2ccccc2-c2ccccc21)[N+](=O)[O-] |  | > 100 |  |  |  | > 10 |  |  |  | > 100 |  | > 100 |  | > 100 |  | > 100
NC(=O)c1c(NC(=O)c2ccc(C(F)(F)F)cc2Cl)sc2c1CCC(=O)C2 |  |  | 0.448 µM | 3.38 | 1.05 | 4.5 | 0.164 | 1.3 | 1.34 | 5.85 | 0.176 | 1.36 | 0.498 | 2.37 | 0.259 | 0.881
Cc1ncc2c(n1)CCC1=C2OS(=O)(=O)CC1N(C)C (centres undefined) |  | > 100 |  |  |  |  |  | > 100 |  | > 100 |  | > 100 |  | > 100 |  | 
CC(C)OC(=O)NNc1c(Cl)cc(Cl)cc1Cl |  | > 100 |  | > 100 |  | > 100 |  | > 100 |  |  |  | > 100 |  | > 100 |  | 69.5
COc1ccc(/C(=N/O)c2cc(F)c(F)c(OC)c2F)cc1O | 0.43 | 23.7 | 0.309 µM | 19.1 | 0.392 | 18.2 | 0.565 | > 100 | 15.8 | > 100 | 0.435 | > 100 | 0.815 | > 100 |  | 

Reference: PubChem BioAssay (NCI)
